Target: human F508del-CFTR (Homo sapiens, UniProt P13569, DEL508-508)
Experiment: F508del-CFTR cell surface expression (corrector activity), DiscoveRx ß-galactosidase complementation chemiluminescence assay in recombinant U2OS cell line;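 also: U2OS cells co-expressing ProLink-tagged F508del-CFTR and a membrane-anchored enzyme acceptor, where more surface CFTR restores β-galactosidase activity measured by chemiluminescence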
Details: for EC50: EC50, F508del-CFTR cell surface expression
[1] = U2OS cell line, 16h compound incubation, geomean values
[2] = U2OS, in relation to the Emax of the corrector lumacaftor (=100%), U2OS cell line, 16h compound incubation, arithmetic mean values
[3] = U2OS cells, 16h compound incubation, geomean of several measurements
[4] = U2OS, in relation to the Emax of the corrector lumacaftor (=100%), U2OS cells, 16h compound incubation, arithmetic mean
[5] = U2OS cells, 16h compound incubation, geomean values
[6] = U2OS, in relation to Emax of corrector lumacaftor (=100%), arithmetic mean values

human F508del-CFTR, sequence (P13569 with tags, fused parts or gaps DEL508-508): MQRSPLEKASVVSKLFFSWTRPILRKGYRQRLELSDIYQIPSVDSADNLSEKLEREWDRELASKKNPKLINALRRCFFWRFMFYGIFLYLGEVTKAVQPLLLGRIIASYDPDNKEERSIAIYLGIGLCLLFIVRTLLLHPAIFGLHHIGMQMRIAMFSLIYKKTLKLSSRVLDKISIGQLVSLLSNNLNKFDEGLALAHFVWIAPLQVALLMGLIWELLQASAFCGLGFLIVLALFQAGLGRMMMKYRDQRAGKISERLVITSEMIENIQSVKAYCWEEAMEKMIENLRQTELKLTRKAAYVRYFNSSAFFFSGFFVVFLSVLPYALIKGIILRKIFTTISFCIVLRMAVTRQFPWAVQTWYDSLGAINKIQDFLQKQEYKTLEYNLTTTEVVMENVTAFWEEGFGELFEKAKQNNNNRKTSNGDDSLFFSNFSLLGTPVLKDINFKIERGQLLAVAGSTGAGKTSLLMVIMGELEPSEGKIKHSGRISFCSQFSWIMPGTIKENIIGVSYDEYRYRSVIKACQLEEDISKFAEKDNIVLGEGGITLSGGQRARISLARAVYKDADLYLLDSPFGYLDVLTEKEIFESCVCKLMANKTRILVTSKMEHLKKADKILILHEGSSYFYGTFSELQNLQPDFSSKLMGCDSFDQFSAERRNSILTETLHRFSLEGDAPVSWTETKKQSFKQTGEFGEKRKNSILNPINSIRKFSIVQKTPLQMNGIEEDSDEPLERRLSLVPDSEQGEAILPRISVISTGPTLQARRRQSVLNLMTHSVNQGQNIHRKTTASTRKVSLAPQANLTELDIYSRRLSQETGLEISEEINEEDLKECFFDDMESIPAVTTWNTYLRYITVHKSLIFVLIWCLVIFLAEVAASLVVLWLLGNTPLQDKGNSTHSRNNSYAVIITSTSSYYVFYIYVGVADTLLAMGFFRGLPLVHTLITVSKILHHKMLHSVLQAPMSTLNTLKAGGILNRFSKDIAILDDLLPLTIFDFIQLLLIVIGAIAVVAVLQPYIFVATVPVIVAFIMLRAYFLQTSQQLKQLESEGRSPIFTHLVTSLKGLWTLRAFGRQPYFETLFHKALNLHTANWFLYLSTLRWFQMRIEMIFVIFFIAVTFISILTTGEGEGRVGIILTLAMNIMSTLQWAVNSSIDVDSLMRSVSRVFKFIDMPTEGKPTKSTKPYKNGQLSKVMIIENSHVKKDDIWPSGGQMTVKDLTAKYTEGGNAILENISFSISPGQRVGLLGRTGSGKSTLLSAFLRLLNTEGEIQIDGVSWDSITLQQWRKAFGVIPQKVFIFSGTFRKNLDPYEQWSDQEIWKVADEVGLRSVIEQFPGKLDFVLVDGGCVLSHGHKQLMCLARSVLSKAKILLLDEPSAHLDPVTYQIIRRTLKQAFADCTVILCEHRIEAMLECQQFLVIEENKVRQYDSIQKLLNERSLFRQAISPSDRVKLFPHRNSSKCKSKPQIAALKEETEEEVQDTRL

| EC50 [5] [nM] | Structure (SMILES) | EC50 [1] [nM] | Emax [2] [%] | further results |
| --- | --- | --- | --- | --- |
| 97 | CC(C)C[C@H]1C(=O)N(CCC2CCCCC2)CC(=O)N[C@H](Cc2ccccc2)COc2ccc3ccccc3c2C(=O)N[C@H](C(=O)NCCc2ccc3c(c2)OCC3)CC(=O)N1C [Example 600, (3S,7S,13R)-13-benzyl-9-(2-cyclohexylethyl)-N-(2-(2,3-dihydrobenzofuran-6-yl)ethyl)-7-isobutyl-6-methyl-1,5,8,11-tetraoxo-1,2,3,4,5,6,7,8,9,10,11,12,13,14-tetradecahydronaphtho[1,2-p][1]oxa[4,7,10,14]tetraazacycloheptadecine-3-carboxamide] | – | – | Emax [6]: 286% |
| 397 | Cc1cc2ccc3c(c2o1)C(=O)N[C@H](C(=O)NCCc1cc(C2CC2)no1)CC(=O)N(C)[C@@H](CC(C)C)C(=O)N(C)CC(=O)N[C@H](Cc1ccccc1)CO3 [Example 532, (8R,14S,18S)-8-benzyl-N-(2-(3-cyclopropylisoxazol-5-yl)ethyl)-14-isobutyl-2,12,15-trimethyl-10,13,16,20-tetraoxo-7,8,9,10,11,12,13,14,15,16,17,18,19,20-tetradecahydrobenzofuro[7,6-p][1]oxa[4,7,10,14]tetraazacycloheptadecine-18-carboxamide] | – | – | Emax [6]: 375% |
| 869 | COc1nccc2c1C(=O)N[C@H](C(=O)NCCc1cc(C)no1)CC(=O)N(C)[C@@H](CC(C)C)C(=O)N1CCc3ccccc3[C@@H]1C(=O)N[C@H](Cc1ccccc1)CO2 [Example 679, (7S,11S,19bR,22R)-22-benzyl-11-isobutyl-4-methoxy-10-methyl-N-(2-(3-methylisoxazol-5-yl)ethyl)-5,9,12,20-tetraoxo-5,6,7,8,9,10,11,12,15,19b,20,21,22,23-tetradecahydro-14H-pyrido[3′,4′:16,17][1]oxa[4,7,10,14]tetraazacycloheptadecino[6,7-a]isoquinoline-7-carboxamide] | – | – | Emax [6]: 277% |
| 421 | COc1nccc2c1C(=O)NC(C(=O)NCCc1cc(C3CC3)no1)CC(=O)N(C)C(CC(C)C)C(=O)N(C)C(CC1CCC(F)(F)CC1)C(=O)NC(Cc1ccccc1)CO2 (single isomer, unassigned) [Example 661] | – | – | Emax (in relation to Emax of corrector lumacaftor (=100%), arithmetic mean values): 247% |

Second part, the compound before the results:

| Structure (SMILES) | EC50 [5] [nM] | EC50 [1] [nM] | Emax [2] [%] | further results |
| --- | --- | --- | --- | --- |
| CC(C)C[C@H]1C(=O)N2CCOC[C@@H]2C(=O)N[C@H](Cc2ccccc2)COc2ccc3ccccc3c2C(=O)N[C@H](C(=O)NCCc2cccc(-n3nccn3)c2)CC(=O)N1C [Example 41, (4aR,7R,18S,22S)-N-(3-(2H-1,2,3-triazol-2-yl)phenethyl)-7-benzyl-22-isobutyl-21-methyl-5,16,20,23-tetraoxo-1,2,4,4a,5,6,7,8,16,17,18,19,20,21,22,23-hexadecahydronaphtho[1,2-p][1,4]oxazino[3,4-f][1]oxa[4,7,10,14]tetraazacycloheptadecine-18-carboxamide] | – | 280 | 215 | – |
| CN1C(=O)C[C@@H](C(=O)NCCc2ccc3c(c2)OCO3)NC(=O)c2c(ccc3ccccc23)OC[C@@H](Cc2ccccc2)NC(=O)CN(C[C@@H]2CCCCO2)C(=O)[C@@H]1CC1CCC1 [Example 337, (3S,7S,13R)-N-(2-(benzo[d][1,3]dioxol-5-yl)ethyl)-13-benzyl-7-(cyclobutylmethyl)-6-methyl-1,5,8,11-tetraoxo-9-(((S)-tetrahydro-2H-pyran-2-yl)methyl)-1,2,3,4,5,6,7,8,9,10,11,12,13,14-tetradecahydronaphtho[1,2-p][1]oxa[4,7,10,14]tetraazacycloheptadecine-3-carboxamide] | – | 452 | 116 | – |
| Cc1cccc2c1C(=O)N[C@H](C(=O)NCCc1ccc3c(c1)OCO3)CC(=O)N(C)[C@@H](CC(C)C)C(=O)N(CCC1CCCCC1)CC(=O)N[C@H](Cc1ccccc1)CO2 [Example 246, (3R,9S,13S)-N-(2-(benzo[d][1,3]dioxol-5-yl)ethyl)-3-benzyl-7-(2-cyclohexylethyl)-9-isobutyl-10,16-dimethyl-5,8,11,15-tetraoxo-2,3,4,5,6,7,8,9,10,11,12,13,14,15-tetradecahydrobenzo[p][1]oxa[4,7,10,14]tetraazacycloheptadecine-13-carboxamide] | – | 140 | 105 | – |
| COc1noc(CCNC(=O)[C@@H]2CC(=O)N(C)[C@@H](CC(C)C)C(=O)N(C)[C@H](CC(F)(F)F)C(=O)N[C@H](Cc3ccccc3)COc3ccc4cnc(C)cc4c3C(=O)N2)c1F [Example 960, (3S,7S,10R,13R)-13-benzyl-N-(2-(4-fluoro-3-methoxyisoxazol-5-yl)ethyl)-7-isobutyl-6,9,20-trimethyl-1,5,8,11-tetraoxo-10-(2,2,2-trifluoroethyl)-1,2,3,4,5,6,7,8,9,10,11,12,13,14-tetradecahydro-[1]oxa[4,7,10,14]tetraazacycloheptadecino[16,17-f]isoquinoline-3-carboxamide] | – | – | – | EC50 [3]: 85 nM; Emax [4]: 507% |
| CC(C)C[C@H]1C(=O)N2CCCC[C@@H]2C(=O)N[C@H](Cc2ccccc2)COc2cnc3ccccc3c2C(=O)N[C@H](C(=O)NCCc2c(F)cccc2F)CC(=O)N1C [Example 72, (9S,13S,19aR,22R)-22-benzyl-N-(2,6-difluorophenethyl)-13-isobutyl-12-methyl-7,11,14,20-tetraoxo-7,8,9,10,11,12,13,14,17,18,19,19a,20,21,22,23-hexadecahydro-16H-pyrido[2′,1′:6,7][1]oxa[4,7,10,14]tetraazacycloheptadecino[17,16-c]quinoline-9-carboxamide] | – | 142 | 335 | – |
| Cc1cc2c3c(ccc2cn1)OC[C@@H](Cc1ccccc1)NC(=O)[C@@H](Cc1nc(-c2ccc(F)cn2)no1)N(C)C(=O)[C@H](CC(C)C)N(C)C(=O)C[C@@H](C(=O)NCCn1nnc(C2CC2)n1)NC3=O [Example 907] | – | – | – | EC50 [3]: 425 nM; Emax [4]: 454% |
| CCOCC[C@@H]1C(=O)N[C@H](Cc2ccccc2)COc2ccc3cnc(C)cc3c2C(=O)N[C@H](C(=O)NCCc2cc(OC)no2)CC(=O)N(C)[C@@H](CC(C)C)C(=O)N1C [Example 913, (3S,7S,10R,13R)-13-benzyl-10-(2-ethoxyethyl)-7-isobutyl-N-(2-(3-methoxyisoxazol-5-yl)ethyl)-6,9,20-trimethyl-1,5,8,11-tetraoxo-1,2,3,4,5,6,7,8,9,10,11,12,13,14-tetradecahydro-[1]oxa[4,7,10,14]tetraazacycloheptadecino[16,17-f]isoquinoline-3-carboxamide] | – | – | – | EC50 [3]: 294 nM; Emax [4]: 390% |
| Cc1cc2c3c(ccc2cn1)OC[C@@H](Cc1ccccc1)NC(=O)[C@@H](Cc1nc(C(F)F)no1)N(C)C(=O)[C@H](CC(C)C)N(C)C(=O)C[C@@H](C(=O)NCCn1nnc(C2CC2)n1)NC3=O [Example 921, (3S,7S,10R,13R)-13-benzyl-N-(2-(5-cyclopropyl-2H-tetrazol-2-yl)ethyl)-10-((3-(difluoromethyl)-1,2,4-oxadiazol-5-yl)methyl)-7-isobutyl-6,9,20-trimethyl-1,5,8,11-tetraoxo-1,2,3,4,5,6,7,8,9,10,11,12,13,14-tetradecahydro-[1]oxa[4,7,10,14]tetraazacycloheptadecino[16,17-f]isoquinoline-3-carboxamide] | – | – | – | EC50 [3]: 231 nM; Emax [4]: 393% |
| COc1cccc(CCNC(=O)[C@@H]2CC(=O)N(C)[C@@H](CC(C)C)C(=O)N(C[C@@H]3CCCCO3)CC(=O)N[C@H](Cc3ccccc3)COc3cccc(OC)c3C(=O)N2)c1 [Example 312, (3R,9S,13S)-3-benzyl-9-isobutyl-16-methoxy-N-(3-methoxyphenethyl)-10-methyl-5,8,11,15-tetraoxo-7-(((S)-tetrahydro-2H-pyran-2-yl)methyl)-2,3,4,5,6,7,8,9,10,11,12,13,14,15-tetradecahydrobenzo[p][1]oxa[4,7,10,14]tetraazacycloheptadecine-13-carboxamide] | – | 727 | 111 | – |
| COc1cccc(CCNC(=O)[C@@H]2CC(=O)N(C)[C@@H](CC(C)C)C(=O)N3CCN(S(=O)(=O)C4CCOCC4)C[C@@H]3C(=O)N[C@H](Cc3ccccc3)COc3ccc4ccccc4c3C(=O)N2)c1 [Example 734, (4aR,7R,18S,22S)-7-benzyl-22-isobutyl-N-(3-methoxyphenethyl)-21-methyl-5,16,20,23-tetraoxo-3-((tetrahydro-2H-pyran-4-yl)sulfonyl)-2,3,4,4a,5,6,7,8,16,17,18,19,20,21,22,23-hexadecahydro-1H-naphtho[1,2-p]pyrazino[2,1-f][1]oxa[4,7,10,14]tetraazacycloheptadecine-18-carboxamide] | 299 | – | – | Emax [6]: 325% |
| CC(C)C[C@H]1C(=O)N2CCOC[C@@H]2C(=O)N[C@H](Cc2ccccc2)COc2ccc3ccccc3c2C(=O)N[C@H](C(=O)NCCc2ccc(-n3nccn3)cc2)CC(=O)N1C [Example 387, (4aR,7R,18S,22S)-N-(4-(2H-1,2,3-triazol-2-yl)phenethyl)-7-benzyl-22-isobutyl-21-methyl-5,16,20,23-tetraoxo-1,2,4,4a,5,6,7,8,16,17,18,19,20,21,22,23-hexadecahydronaphtho[1,2-p][1,4]oxazino[3,4-f][1]oxa[4,7,10,14]tetraazacycloheptadecine-18-carboxamide] | – | 342 | 215 | – |
| CC(C)C[C@H]1C(=O)N2CCOC[C@@H]2C(=O)N[C@H](Cc2ccccc2)COc2cnc3ccccc3c2C(=O)N[C@H](C(=O)NCCc2c(F)cccc2F)CC(=O)N1C [Example 68, (9S,13S,19aR,22R)-22-benzyl-N-(2,6-difluorophenethyl)-13-isobutyl-12-methyl-7,11,14,20-tetraoxo-7,8,9,10,11,12,13,14,16,17,19,19a,20,21,22,23-hexadecahydro-[1,4]oxazino[3′,4′:6,7][1]oxa[4,7,10,14]tetraazacycloheptadecino[17,16-c]quinoline-9-carboxamide] | – | 448 | 331 | – |

Source: patent publication US20240208992A1, “MACROCYCLES AS CFTR MODULATORS” (Idorsia Pharmaceuticals Ltd, priority 2021, published 2024)
